Measurements as given in patent publication US11445724B2, “Insecticidal compounds” (SYNGENTA PARTICIPATIONS AG, priority 2013, dated 2022).

Experiments:
Assay type in all cases: in vivo
[1] = system: Spodoptera littoralis (Egyptian cotton leafworm); assay: Spodoptera littoralis (Egyptian cotton leafworm) mortality, sprayed cotton leaf discs; conditions: foliar, 72 h, 200 ppm spray on cotton leaf discs, L1 larvae, mortality 3 DAT
[2] = system: Thrips tabaci (Onion thrips); assay: Thrips tabaci (Onion thrips) mortality, sprayed sunflower leaf discs; conditions: foliar, 168 h, 200 ppm spray on sunflower leaf discs, mixed ages, mortality after 7 days
[3] = system: Myzus persicae (Green peach aphid); assay: Myzus persicae (Green peach aphid) mortality, sprayed sunflower leaf discs; conditions: foliar, 144 h, 200 ppm spray on sunflower leaf discs, mixed ages, mortality 6 DAT
[4] = system: Plutella xylostella (Diamond back moth); assay: Plutella xylostella (Diamond back moth) larval mortality, artificial diet in 24-well MTP; conditions: 144 h, application rate 200 ppm (concentration in well 18 ppm), L2 larvae, larval mortality after 6 days
[5] = system: Diabrotica balteata (Corn root worm); assay: Diabrotica balteata (Corn root worm) larval mortality, artificial diet in 24-well MTP; conditions: 120 h, application rate 200 ppm (concentration in well 18 ppm), L2 larvae, larval mortality after 5 days
[6] = system: Myzus persicae (Green peach aphid); assay: Myzus persicae (Green peach aphid) mortality, test compounds mixed with Sucrose solution under Parafilm; conditions: 120 h, 12.5 ppm in Sucrose solution, infested pea seedlings on Parafilm, mortality 5 days after infestation
[7] = system: Tetranychus urticae (Two-spotted spider mite); assay: Tetranychus urticae (Two-spotted spider mite) mortality, sprayed bean leaf discs; conditions: foliar, 192 h, 200 ppm spray on bean leaf discs, mixed ages, egg, larval and adult mortality after 8 days

COc1c(NC(=O)c2ccc(F)cc2Cl)cccc1C(=O)Nc1c(Br)cc(C(F)(C(F)(F)F)C(F)(F)F)cc1OC(F)F [Compound 66]
≥ 80%: pest or weed control at 200 ppm [1] | pest or weed control at 200 ppm [2] | pest or weed control at 200 ppm [3] | pest or weed control at 200 ppm [4] | pest or weed control at 200 ppm [5] | pest or weed control at 12.5 ppm [6] | pest or weed control at 200 ppm [7]

O=C(Nc1cccc(C(=O)Nc2c(Cl)cc(C(F)(C(F)(F)F)C(F)(F)F)cc2OC(F)F)c1F)c1ccccc1 [Compound 68]
≥ 80%: pest or weed control at 200 ppm [1] | pest or weed control at 200 ppm [2] | pest or weed control at 200 ppm [3] | pest or weed control at 200 ppm [4] | pest or weed control at 200 ppm [5] | pest or weed control at 12.5 ppm [6] | pest or weed control at 200 ppm [7]

O=C(Nc1cccc(C(=O)Nc2c(Cl)cc(C(F)(C(F)(F)F)C(F)(F)F)cc2OC(F)F)c1F)c1ccc(F)cc1 [Compound 70]
≥ 80%: pest or weed control at 200 ppm [1] | pest or weed control at 200 ppm [2] | pest or weed control at 200 ppm [3] | pest or weed control at 200 ppm [4] | pest or weed control at 200 ppm [5] | pest or weed control at 12.5 ppm [6] | pest or weed control at 200 ppm [7]

O=C(Nc1cccc(C(=O)Nc2c(Cl)cc(C(F)(C(F)(F)F)C(F)(F)F)cc2OC(F)F)c1F)c1cccc(F)c1F [Compound 76]
≥ 80%: pest or weed control at 200 ppm [1] | pest or weed control at 200 ppm [2] | pest or weed control at 200 ppm [3] | pest or weed control at 200 ppm [4] | pest or weed control at 200 ppm [5] | pest or weed control at 12.5 ppm [6] | pest or weed control at 200 ppm [7]

O=C(Nc1cccc(C(=O)Nc2c(Cl)cc(C(F)(C(F)(F)F)C(F)(F)F)cc2OC(F)F)c1F)c1ccc(F)cc1F [Compound 78]
≥ 80%: pest or weed control at 200 ppm [1] | pest or weed control at 200 ppm [2] | pest or weed control at 200 ppm [3] | pest or weed control at 200 ppm [4] | pest or weed control at 200 ppm [5] | pest or weed control at 12.5 ppm [6] | pest or weed control at 200 ppm [7]

COc1c(NC(=O)c2ccc([N+](=O)[O-])cc2)cccc1C(=O)Nc1c(Cl)cc(C(F)(C(F)(F)F)C(F)(F)F)cc1OC(F)F [Compound 81]
≥ 80%: pest or weed control at 200 ppm [1] | pest or weed control at 200 ppm [2] | pest or weed control at 200 ppm [3] | pest or weed control at 200 ppm [4] | pest or weed control at 200 ppm [5] | pest or weed control at 12.5 ppm [6] | pest or weed control at 200 ppm [7]

O=C(Nc1cccc(C(=O)Nc2c(Br)cc(C(F)(C(F)(F)F)C(F)(F)F)cc2OC(F)F)c1F)c1ccccc1F [Compound 83]
≥ 80%: pest or weed control at 200 ppm [1] | pest or weed control at 200 ppm [2] | pest or weed control at 200 ppm [3] | pest or weed control at 200 ppm [4] | pest or weed control at 200 ppm [5] | pest or weed control at 12.5 ppm [6] | pest or weed control at 200 ppm [7]

COc1c(NC(=O)c2ccc(F)cc2C)cccc1C(=O)Nc1c(Cl)cc(C(F)(C(F)(F)F)C(F)(F)F)cc1OC(F)F [Compound 84]
≥ 80%: pest or weed control at 200 ppm [1] | pest or weed control at 200 ppm [2] | pest or weed control at 200 ppm [3] | pest or weed control at 200 ppm [4] | pest or weed control at 200 ppm [5] | pest or weed control at 12.5 ppm [6] | pest or weed control at 200 ppm [7]

COc1c(NC(=O)c2ccc([N+](=O)[O-])cc2Cl)cccc1C(=O)Nc1c(Cl)cc(C(F)(C(F)(F)F)C(F)(F)F)cc1OC(F)F [Compound 86]
≥ 80%: pest or weed control at 200 ppm [1] | pest or weed control at 200 ppm [2] | pest or weed control at 200 ppm [3] | pest or weed control at 200 ppm [4] | pest or weed control at 200 ppm [5] | pest or weed control at 12.5 ppm [6] | pest or weed control at 200 ppm [7]

COc1c(NC(=O)c2ccc(C(F)(F)F)cc2)cccc1C(=O)Nc1c(Cl)cc(C(F)(C(F)(F)F)C(F)(F)F)cc1OC(F)F [Compound 89]
≥ 80%: pest or weed control at 200 ppm [1] | pest or weed control at 200 ppm [2] | pest or weed control at 200 ppm [3] | pest or weed control at 200 ppm [4] | pest or weed control at 200 ppm [5] | pest or weed control at 12.5 ppm [6] | pest or weed control at 200 ppm [7]

COc1c(NC(=O)c2ccc(F)cc2)cccc1C(=O)Nc1c(Cl)cc(C(F)(C(F)(F)F)C(F)(F)F)cc1OC(F)F [Compound 93]
≥ 80%: pest or weed control at 200 ppm [1] | pest or weed control at 200 ppm [2] | pest or weed control at 200 ppm [3] | pest or weed control at 200 ppm [4] | pest or weed control at 200 ppm [5] | pest or weed control at 12.5 ppm [6] | pest or weed control at 200 ppm [7]

COc1c(C(=O)C(C(C)=O)c2c(Br)cc(C(F)(C(F)(F)F)C(F)(F)F)cc2OC(F)F)cccc1N(C)C(=O)c1ccncc1 (stereo not drawn) [Compound 99]
≥ 80%: pest or weed control at 200 ppm [1] | pest or weed control at 200 ppm [2] | pest or weed control at 200 ppm [3] | pest or weed control at 200 ppm [4] | pest or weed control at 200 ppm [5] | pest or weed control at 12.5 ppm [6] | pest or weed control at 200 ppm [7]

Cc1cc(C(F)(C(F)(F)F)C(F)(F)F)cc(OC(F)F)c1NC(=O)c1cccc(NC(=O)c2ccncc2)c1F [Compound 100]
≥ 80%: pest or weed control at 200 ppm [1] | pest or weed control at 200 ppm [2] | pest or weed control at 200 ppm [3] | pest or weed control at 200 ppm [4] | pest or weed control at 200 ppm [5] | pest or weed control at 12.5 ppm [6] | pest or weed control at 200 ppm [7]

CCN(C(=O)c1ccncc1)c1cccc(C(=O)Nc2c(C)cc(C(F)(C(F)(F)F)C(F)(F)F)cc2OC(F)F)c1F [Compound 101]
≥ 80%: pest or weed control at 200 ppm [1] | pest or weed control at 200 ppm [2] | pest or weed control at 200 ppm [3] | pest or weed control at 200 ppm [4] | pest or weed control at 200 ppm [5] | pest or weed control at 12.5 ppm [6] | pest or weed control at 200 ppm [7]

COc1c(C(=O)Nc2c(Br)cc(C(F)(C(F)(F)F)C(F)(F)F)cc2OC(F)F)cccc1N(C)C(=O)c1ccncc1 [Compound 102]
≥ 80%: pest or weed control at 200 ppm [1] | pest or weed control at 200 ppm [2] | pest or weed control at 200 ppm [3] | pest or weed control at 200 ppm [4] | pest or weed control at 200 ppm [5] | pest or weed control at 12.5 ppm [6] | pest or weed control at 200 ppm [7]
